Data from PMC8179567, “Target-templated de novo design of macrocyclic D-/L-peptides: discovery of drug-like inhibitors of PD-1” (Chemical Science, 2021).
Square brackets hold non-standard residues; d marks the D form. Peptide text beside a SMILES is read from it.

Tests used:
[1] = target: T1, extracellular domain of human PD-1 (Homo sapiens, UniProt Q15116, C93S); experiment: Surface plasmon resonance (SPR), PD-1 immobilised on CM5 chip; format: binding; settings: analytes injected at 10, 100 and 1000 µM in PBS, 25 °C, PBS-T pH 7.4, reference channel subtracted; KD not calculable (fast kinetics, no saturation)
T1 construct: ectodomain of human PD-1 (aa 33- 150) was cloned into pET-24d; made in house
T1 sequence (Q15116 33-150 C93S limits assumed): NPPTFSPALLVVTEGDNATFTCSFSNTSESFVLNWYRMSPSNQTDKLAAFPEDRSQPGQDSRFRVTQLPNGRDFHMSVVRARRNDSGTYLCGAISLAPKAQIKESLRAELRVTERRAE
Text: Seven de novo designed cyclic peptides were in total selected for experimental characterization (PD-i1-7). To this end, peptide chains were elongated on a Wang-linker modified polystyrene resin (anchoring through the Asp side-chain carboxylic acid). This chemical strategy enabled the head-to-tail cyclisation to be readily performed on-resin, and a final deprotection/cleavage step yielded the already cyclized final peptide (Scheme S1 ^†). To test for their bioactivity, the extracellular domain of human PD-1 was recombinantly expressed in E. coli and refolded from inclusion bodies. The purified protein was then immobilized by free amine coupling on a CM5 sensor chip surface, and surface plasmon resonance (SPR) measurements were performed. […] In particular, we selected microscale thermophoresis (MST) as it has been validated with this system[30] and allows the quantification of interactions in solution, which mimics physiological conditions. To this end, PD-1 was first fluorescently labelled and then titrated with increasing amounts of PD-i3 and PD-i6. […] Mutation of L-Trp, which serves as PD-1 anchor for the in silico design process, largely abolished binding to the target (Fig. S9A ^†). […]

[2] = target: T2, 15N-labelled PD-1 extracellular domain (Homo sapiens, UniProt Q15116, C93S); experiment: 1H,15N HSQC NMR mapping of interaction site; format: binding; settings: 15N-PD-1 60 µM, peptide 1 mM, 25 °C, pH 6.4; I/Io > 20% considered significant; residues adjacent to the CC′ loop
T2 construct: ectodomain of human PD-1 (aa 33- 150) was cloned into pET-24d; made in house
T2 sequence (Q15116 33-150 C93S limits assumed): as above
Protocol: To further elucidate the interaction site of PD-i3 and PD-i6, we expressed the extracellular domain of PD-1 uniformly labelled in ^15N and performed high-resolution NMR spectroscopy assays.
Microscale thermophoresis (MST)
MST was used to calculate the binding affinities in solution of PD-i3 and PD-i 6 for the extracellular domain of human PD-1. To this end, PD-1 was fluorescently labelled by reaction of the Lys side chains with Alexa-647-NHS (6 eq) for 3 h at 4 °C. The labelled protein was purified by size-exclusion chromatography and was diluted in PBS-T buffer (0.05% Tween 20, pH 7.4) to a final concentration of 10 nM. […]
#BE0193) as positive controls (Figure S). […] A reproducible and negative thermophoresis response was observed, which was baseline-corrected and normalized (ΔFnorm [‰]).The curves were analyzed using a standard Langmuir binding model, from which dissociations constants (K D) were determined. […]
ITC experiments were performed at 25 °C using a low-volume nano ITC calorimeter (TA instruments). […] Binding isotherms were analysed using the software provided by TA instruments, assuming a single binding site for the independent domains. […]
1H,15N HSQC spectra were recorded at 25 °C on a Bruker 600 MHz spectrometer equipped with a cryoprobe. […]
To assess the solution structures of PD-i3 and PD-i6, NMR spectra were recorded at 5 °C on a Bruker B800 MHz spectrometer equipped with a cryoprobe. […]

Row | SMILES | SPR response on PD-1-functionalised channel [1] | Changes in PD-1 HSQC signal intensity on peptide addition [2]
1 | CSCC[C@@H]1NC(=O)[C@H]([C@@H](C)O)NC(=O)[C@H](CC(=O)O)NC(=O)[C@H]2CCCN2C(=O)[C@H](Cc2ccc(O)cc2)NC(=O)[C@H](CCCNC(=N)N)NC(=O)[C@@H](CCCNC(=N)N)NC(=O)[C@@H](CCC(=O)O)NC(=O)[C@H](CC(C)C)NC(=O)[C@H](Cc2ccc(O)cc2)NC1=O [PD-i3] (cyclo(DTMYL[dE][dR]RY[dP])) | distinct concentration-dependent SPR responses | significant changes in signal intensity
2 | CC(C)[C@@H]1NC(=O)[C@@H](Cc2c[nH]c3ccccc23)NC(=O)[C@H](Cc2c[nH]c3ccccc23)NC(=O)[C@H](CC(=O)O)NC(=O)[C@@H](CCCCN)NC(=O)[C@H](C)NC(=O)[C@H](CCC(=O)O)NC(=O)[C@H]2CCCN2C1=O [PD-i6] (cyclo(A[dK]DW[dW]V[dP]E)) | distinct concentration-dependent SPR responses | significant changes in signal intensity
